Drawing on ChEMBL document CHEMBL3352766, “Weakly anti-inflammatory limonoids from the seeds of Xylocarpus rumphii” (J Nat Prod, 2014), this text covers IC50 and inhibition for nine compounds.

What is called IC50 is the concentration that inhibits the measured activity by half.

The source made the active and inactive calls. The rule behind the calls is not given here.

The first assay has as its system J774.A1. The assay is described as follows: Antiinflammatory activity in mouse J774.A1 cells assessed as inhibition of LPS-induced NO production treated 2 hrs before LPS challenge measured after 20 hrs. The class given is functional, cell-based.
For `CC[C@H](C)C(=O)O[C@H]1C(C)(C)[C@H](CC(=O)OC)[C@@]2(C)[C@H]3CC[C@]4(C)C(=CC(=O)O[C@H]4c4ccoc4)[C@]34O[C@@]2(O)[C@@]1(O)[C@H]4OC(=O)[C@@H](C)CC`, the IC50 stood at 31.3 µM.

For `COc1ccc2c(c1)c(CC(=O)O)c(C)n2C(=O)c1ccc(Cl)cc1` [INDOMETHACIN], the IC50 was determined as 28.6 µM.

As for `CC[C@H](C)C(=O)O[C@H]1[C@@]23O[C@]4(O)[C@@](C)([C@@H](CC(=O)OC)C(C)(C)[C@H](OC(=O)C(C)C)[C@]14O)[C@H]2CC[C@]1(C)[C@H]3CC(=O)O[C@H]1c1ccoc1`, the half-inhibitory concentration (IC50) came to 24.5 µM.

For the next assay, the system named is J774.A1. Description: Antiinflammatory activity in mouse J774.A1 cells assessed as inhibition of LPS-induced NO production at 50 uM treated 2 hrs before LPS challenge measured after 20 hrs. The class given is functional, cell-based.
In the case of `COC(=O)C[C@H]1[C@]2(C)C[C@@]34OC5(C)O[C@]6([C@@H]7[C@H](O)C(=O)O[C@@H](c8ccoc8)[C@]7(C)CC[C@]6(O5)[C@]13C)[C@H](OC(C)=O)[C@@]4(OC(C)=O)[C@H]2OC(C)=O`, the inhibition result was “inactive”.

`CC[C@H](C)C(=O)O[C@H]1C(C)(C)[C@H](CC(=O)OC)[C@@]2(C)[C@H]3CC[C@]4(C)C(=CC(=O)O[C@H]4c4ccoc4)[C@]34O[C@@]2(O)[C@@]1(O)[C@H]4OC(=O)C(C)C`: the inhibition entry is “inactive”.

In the case of `COC(=O)C[C@H]1C(C)(C)[C@H](OC(C)=O)[C@]2(O)[C@@H](OC(=O)C(C)C)[C@@]34O[C@]2(O)[C@]1(C)[C@H]3CC[C@]1(C)[C@H]4CC(=O)O[C@H]1c1ccoc1`, the inhibition entry was “inactive”.

Regarding `CC[C@H](C)C(=O)O[C@H]1C(C)(C)[C@H](CC(=O)OC)[C@@]2(C)[C@H]3CC[C@]4(C)[C@@H](CC(=O)O[C@H]4c4ccoc4)[C@]34O[C@@]2(O)[C@@]1(O)[C@H]4OC(=O)[C@@H](C)CC`, the inhibition entry was “inactive”.

Turning to `CC[C@H](C)C(=O)O[C@@H]1[C@H]2[C@@H](OC(=O)C(C)C)C(C)(C)[C@H](CC(=O)OC)[C@@]3(C)[C@H]4CC[C@]5(C)[C@@H](CC(=O)O[C@H]5c5ccoc5)[C@@]14O[C@@]23O`, the inhibition result is “inactive”.

Take `COC(=O)C[C@H]1C(C)(C)[C@H](OC(=O)C(C)C)[C@@H]2[C@@H](OC(=O)C(C)C)[C@@]34O[C@]2(O)[C@]1(C)[C@H]3CC[C@]1(C)[C@H]4CC(=O)O[C@H]1c1ccoc1`: the inhibition entry is “inactive”.
